# Assay results published in article PMC8389655, “Au2phen and Auoxo6, Two Dinuclear Oxo-Bridged Gold(III) Compounds, Induce Apoptotic Signaling in Human Ovarian A2780 Cancer Cells” (Biomedicines, 2021).
# Tested on: complex I-driven mitochondrial respiration
# Assay: Respiratory control ratio, complex I-driven respiration in permeabilized cells
# Format: cell-based, human
# Settings: permeabilized A2780, 24 h treatment; control about 3.1
# Experimental: The analysis of the oxygen consumption rate (OCR) was performed using a Clark-type O2 electrode inserted in a thermostated airtight chamber (Oxygraph Plus System, Hansatech Instruments, King’s Lynn, Norfolk, UK). Briefly, control and treated cells (12 and 24 h) were trypsinized, washed with PBS, and suspended in culture medium to measure the steady state OCR for 10 min. The OCR values, expressed as nmol of consumed O2/mL/min, were normalized to the cellular protein content. To evaluate the response of complex I, complex II/III, and ATP-synthase-driven OCRs in the presence or absence of gold-treatment, we used the protocol described by Baracca et al.. Cells were trypsinized, washed, and resuspended in buffer containing sucrose, TRIS-HCl, MgSO4, EDTA, and KH2PO4. Cell suspension was treated with digitonin to allow cell membrane permeabilization. To stimulate complex I, 250 mM glutamate/malate was added, whereas to stimulate complex II, 250 mM succinate was added (state 2 respiration). Then, to induce ATP-synthase-driven mitochondrial respiration, 10 mM ADP was added (state 3 respiration). To estimate the mitochondrial respiratory capacity, defined as the respiratory control ratio (RCR), state 3/state 2 ratios were calculated for control and treated cells.
row,SMILES,"respiratory control ratio (RCR), complex I-driven"
1,"CCOC(=O)CN(C)C1=[S+][Au-]([Br])([Br])[S]1 [AuL12, dibromo(ethylsarcosinedithiocarbamate)gold(III), reference compound]",2.3
2,"Cc1cccc2[n+]1[Au-]1([O][Au-]3([O]1)[n+]1c(C)cccc1-c1cccc(C)[n+]13)[n+]1c(C)cccc1-2.F[P-](F)(F)(F)(F)F.F[P-](F)(F)(F)(F)F [Auoxo6, ((6,6′-dimethyl-2,2′-bipyridine)2Au2(µ-O)2)(PF6)2]",2.1
3,"Cc1ccc2ccc3ccc(C)[n+]4c3c2[n+]1[Au-]41[O][Au-]2([O]1)[n+]1c(C)ccc3ccc4ccc(C)[n+]2c4c31.F[P-](F)(F)(F)(F)F.F[P-](F)(F)(F)(F)F [Au2phen, ((2,9-dimethyl-1,10-phenanthroline)2Au2(µ-O)2)(PF6)2]",about 1.8
